In publication PMC9822434, “Estradiol-Based Salicylaldehyde (Thio)Semicarbazones and Their Copper Complexes with Anticancer, Antibacterial and Antioxidant Activities” (Molecules, 2022):
Values belong to the molecule of their own block, whether it stands above or below them.

How the values were obtained:
A549 = experiment: MTT cytotoxicity assay; format: cell-based, human; conditions: 24 h incubation time
Method: (§1) To test the biological effects of the Cu(II) complexes and the ligands on human cancer cells, DU-145 prostate, A549 lung, and MCF-7 breast adenocarcinoma cells, as well as the multidrug-resistant MCF-7 KCR breast cancer cells were utilized. All the cell lines were maintained in RPMI-1640 media (Biosera, Nuaille, France) complemented with 10% fetal bovine serum (FBS), 2 mM L-glutamine, 0.01% streptomycin and 0.005% penicillin, (Biosera, Nuaille, France) and were cultured under standard conditions in a 37 °C incubator at 5% CO2 and 95% humidity. The cell lines were originally obtained from ATCC.
(§2) The effect of the complexes and of their ligands alone on the viability (on the metabolic activity) of human cancer cells was assessed by MTT assay. The tested compounds were dissolved in 90% (v/v) DMSO/H2O at 10 mM concentration. Equimolar solutions of the ligand CuCl2 salt were used for the cytotoxicity assays. The metal salts without ligands were also tested. For this, 1 × 10^4 cells/well were seeded into 96-well plates and left to grow overnight. On the following day, cells were exposed to increasing concentrations of each compound (0; 2.5; 5; 10; 15; 20 µM). After a 24 h incubation, cells were washed with PBS buffer and then incubated with 0.5 mg/mL MTT (Sigma-Aldrich, St Louis, Missouri, MO, USA) for 1 h at 37 °C. The formazan crystals were solubilized in DMSO (Molar Chemicals, Halásztelek, Hungary), and the absorbance of samples was determined at 570 nm using a Synergy HTX plate reader (BioTek, Winooski, Vermont, VT, USA). Absorption corresponding to the untreated control samples was considered as 100%.

MCF-7 KCR = experiment: MTT cytotoxicity assay; format: cell-based, human
Method: as §1, §2

MCF-7 = experiment: MTT cytotoxicity assay; format: cell-based, human; conditions: MCF-7, MTT, 24 h incubation time
Method: as §1, §2

DU-145 = experiment: MTT cytotoxicity assay; format: cell-based, human; conditions: DU-145, MTT, 24 h incubation time
Method: as §1, §2

[1] = DPPH free radical scavenging assay; conditions: for TEAC (Trolox equivalent antioxidant capacity): DPPH assay in ethanol; for TEAC (Trolox equivalent antioxidant capacity) / % Scavenging Effect: 25 °C; for % Scavenging Effect: DPPH:compound = 1:1 ratio after 30 min, ethanol; for IC50: in ethanol, T = 25 °C, cDPPH = 50 µM, ccompound = 5−50 µM
Method: The DPPH (Sigma-Aldrich) free radical scavenging capacity was studied at 25.0 ± 0.1 °C on an Agilent Cary 3500 spectrophotometer with tightly closed tandem cuvette according to our approach with some modifications. The stock solution of DPPH (100 µM) was prepared in ethanol, and 0.5 mL of this solution was added to one pocket of the cuvette and 0.5 mL of the tested compound in different concentrations in ethanol was added to another. The final concentration of the studied compounds was in the range 5–50 µM, where for DPPH concentration, it was always 50 µM. A standard compound Trolox (Sigma-Aldrich) was used as a positive control. The percentage of the antioxidant activity (AA), IC50 values (the concentration of compound at which it reduced 50% of DPPH) and Trolox equivalent antioxidant capacity (TEAC) were calculated.

E. faecalis ATCC 29212 = experiment: MIC determination; format: cell-based, Enterococcus faecalis; conditions: Gram-positive E. faecalis ATCC 29212, Mueller Hinton Broth
Method: (§3) Klebsiella pneumoniae (ATCC 49619), Escherichia coli (ATCC 25922), Staphylococcus aureus (ATCC 25928) and Enterococcus faecalis (ATCC 29212) strains were used as Gram-negative and Gram-positive bacterial cultures. The stock solutions of the tested compounds (dissolved in 90% (v/v) DMSO/H2O at 10 mM concentration) were diluted in 100 μL of Mueller Hinton Broth, and then two-fold serial dilutions were performed. As a starting point, 100 μM concentration of the compounds was used. Then, 10^−4 dilution of an overnight bacterial culture in 100 μL of medium was added to each well, with the exception of the medium control wells. Minimum inhibitory concentration (MIC) values of compounds were determined according to our previous work.

S. aureus ATCC 25928 = experiment: MIC determination; format: cell-based, Staphylococcus aureus; conditions: Gram-positive S. aureus ATCC 25928, Mueller Hinton Broth
Method: as §3

[2] = cyclic voltammetry of Cu(II)-(T)SC (1:1) systems; format: physicochemical; conditions: 90% (v/v) DMSO/H2O, pH 7.40 (10 mM HEPES), 10 mV/s, 25 °C, I = 0.1 M (nBu4NPF6)
Method: Cyclic voltammograms of TSCs derivatives and their Cu(II) complexes at 25.0 ± 0.1 °C were recorded. nBu4NPF6 was used as a supporting electrolyte, and measurements were performed at pH 7.4. The complexes were obtained by mixing the ligand dissolved in DMSO with aqueous solution of CuCl2 in 1:1 ratio. The final concentration of stock was 1 mM. Measurements were performed on a conventional three-electrode system under argon atmosphere using an Autolab PGSTAT 204 potentiostat/galvanostat monitored with Metrohm’s Nova software. Samples were purged for 10 min with argon before recording the cyclic voltammograms. Platinum electrode was used as the working and auxiliary electrode and Ag/AgCl/3 M KCl as the reference electrode. The electrochemical system was calibrated with an aqueous solution of K3[Fe(CN)6] (E1/2 = +0.458 V vs. NHE). Redox potentials were obtained at 10 mV/s scan rate in the range of −1.3 to +0.8 V.

physchem = format: physicochemical
Method: (§4) An Orion 710A pH-meter equipped with a Metrohm combined electrode (type 6.0234.100) and a Metrohm 665 Dosimat burette were used for the UV–vis titrations at 25.0 ± 0.1 °C. Ionic strength of 0.10 M (KCl) was used to keep the activity coefficients constant. The titrations were performed with carbonate-free KOH solution of known concentration (0.10 M) with 30% (v/v) DMSO content. […] The average water ionization constant (pKw) is 14.54 ± 0.05 in the 30% (v/v) DMSO/H2O mixture. Argon was always passed over the solutions during the titrations. An Agilent Cary 8454 diode array spectrophotometer was used to record the UV–vis spectra at an interval of 200–800 nm. The path length was 2 cm. Spectrophotometric titrations were performed using a 0.1 M KOH titrant solution with 30% (v/v) DMSO on samples with 30% (v/v) DMSO containing HCl, KCl and the ligand at 20 μM concentration in the pH range 2.0–12.5 in the absence or in the presence of 1 or 0.5 equiv. Cu(II) ions. Proton dissociation constants (Ka) of the TSC ligands, the overall stability constants (β) of the Cu(II) complexes and the UV–vis spectra of the individual species were calculated by the computer program PSEQUAD [41] as was done in our previous works.

[3] = format: physicochemical; conditions: for logβ [CuLH−1] / logβ [CuL]+: Cu(II) complex of the named ligand, 30% (v/v) DMSO/H2O, T = 25.0 °C, I = 0.1 M (KCl); for pCu5.0: calculated at pH 5.0, cCu(II) = 20 µM; for pCu5.0 / pCu6.0 / pCu7.4: cligand = 20 µM; for pCu6.0: estimated at pH 6.0, cCu(II) = 20 µM; for pCu7.4: estimated at pH 7.4, cCu(II) = 20 µM
Method: as §4

[4] = direct redox reaction of the Cu(II) complexes with GSH (UV–vis, anaerobic); format: physicochemical; conditions: Cu(II) complex (25 µM) of the named ligand with GSH (1.25 mM), pH 7.4, anaerobic, 30% (v/v) DMSO/H2O, 25.0 °C
Method: The redox reaction of the Cu(II) complexes with GSH and ascorbic acid was studied at 25.0 ± 0.1 °C, at pH 7.40 (10 mM HEPES with 0.1 M KCl) on an Agilent Cary 8454 diode array spectrophotometer using a special, tightly closed tandem cuvette (Hellma Tandem Cell, 238-QS). The complex and the reducing agent were separated until the reaction was triggered. Both isolated pockets of the tandem cuvette were completely deoxygenated by bubbling argon for 10 min before mixing the reactants. Spectra were recorded before and then immediately after the mixing, and changes were followed till no further absorbance change was observed. The stock solutions of the reducing agents and the complexes were freshly prepared every day.
During the calculations, the absorbance (A)−time (t) curves were fitted and analyzed at the λmax of the complex. (A0 − Afinal) × e ^(−a×t) + Afinal equation was used where A0, Afinal and a parameters were refined and accepted at the minimal value of the weighted sum of squared residuals (difference between the measured and calculated absorbance values) at the given wavelength. Then observed rate constants (kobs) of the redox reaction were obtained from the data points of the simulated absorbance–time curves as the slope of the ln(A/A0) versus t plots.

[5] = Homo sapiens, MCF7, 24 h incubation time
[6] = Enterococcus faecalis, ATCC29212
[7] = Staphylococcus aureus, ATCC25928

- IC50 [1]: 16.4 µM
- MIC (E. faecalis ATCC 29212): 12.5 µM
- MIC (S. aureus ATCC 25928): 0.78 µM
- formal potential E’ vs. Ag/AgCl/3M KCl [2]: +0.33 V
SMILES: CN(C)C([S-])=N/N=C/c1cc2c(cc1[O-])CC[C@@H]1[C@@H]2CC[C@]2(C)[C@@H](O)CC[C@@H]12.O.[Cu+2] [Cu(II)-Me2-estradiol-TSC]
- IC50 (A549): 3.44 ± 1.02 µM
- IC50 (MCF-7 KCR; 24 h incubation time): > 20 µM
- IC50 (MCF-7): 10.1 ± 1.36 µM
- IC50 (DU-145): 7.85 ± 1.08 µM
- TEAC (Trolox equivalent antioxidant capacity) [1]: 0.7
- % Scavenging Effect [1]: 40.4%

- IC50 [1]: 20.3 µM
- MIC (E. faecalis ATCC 29212): 50 µM
- MIC (S. aureus ATCC 25928): 6.25 µM
- formal potential E’ vs. Ag/AgCl/3M KCl [2]: +0.29 V
SMILES: CNC([S-])=N/N=C/c1cc2c(cc1[O-])CC[C@@H]1[C@@H]2CC[C@]2(C)[C@@H](O)CC[C@@H]12.O.[Cu+2] [Cu(II)-Me-estradiol-TSC]
- IC50 (A549): 3.71 ± 1.02 µM
- IC50 (MCF-7 KCR; 24 h incubation time): > 20 µM
- IC50 (MCF-7): 16.7 ± 1.66 µM
- IC50 (DU-145): 15.8 ± 1.08 µM
- TEAC (Trolox equivalent antioxidant capacity) [1]: 0.6
- % Scavenging Effect [1]: 33.6%

SMILES: CN(C)C(=S)NN=Cc1cc2c(cc1O)CC[C@@H]1[C@@H]2CC[C@]2(C)[C@@H](O)CC[C@@H]12 [Me2-estradiol-TSC, 2-((3,17 β-Dihydroxy-estra-1,3,5(10)-triene-2-yl)methylene)-N,N-dimethylhydrazine-1-carbothioamide]
- IC50 (A549; Homo sapiens): > 20 µM
- IC50 (MCF-7 KCR; [5]): > 20 µM
- IC50 (MCF-7; Homo sapiens, MCF7): > 20 µM
- IC50 (DU-145; Homo sapiens): > 20 µM
- TEAC (Trolox equivalent antioxidant capacity) [1]: 0.9
- % Scavenging Effect [1]: 100%
- IC50 [1]: 13.6 µM
- MIC (E. faecalis ATCC 29212; [6]): > 100 µM
- MIC (S. aureus ATCC 25928; [7]): > 100 µM
- pKa (physchem): 9.2 ± 0.03
- pKa [CuL]+ [3]: 3.85
- logβ [CuLH−1] [3]: 10.11 ± 0.03
- logβ [CuL]+ [3]: 13.96 ± 0.03
- pCu5.0 [3]: 8.0
- pCu6.0 [3]: 9.6
- pCu7.4 [3]: 12.4
- kobs [4]: 0.31 ± 0.06 min⁻¹

SMILES: CNC(=S)NN=Cc1cc2c(cc1O)CC[C@@H]1[C@@H]2CC[C@]2(C)[C@@H](O)CC[C@@H]12 [Me-estradiol-TSC, 2-((3,17 β-Dihydroxy-estra-1,3,5(10)-triene-2-yl)Methylene)-N-methylhydrazine-1-carbothioamide]
- IC50 (A549; Homo sapiens): 15.8 ± 1.03 µM
- IC50 (MCF-7 KCR; [5]): > 20 µM
- IC50 (MCF-7; Homo sapiens, MCF7): > 20 µM
- IC50 (DU-145; Homo sapiens): > 20 µM
- TEAC (Trolox equivalent antioxidant capacity) [1]: 0.8
- % Scavenging Effect [1]: 31.0%
- IC50 [1]: 15.4 µM
- MIC (E. faecalis ATCC 29212; [6]): > 100 µM
- MIC (S. aureus ATCC 25928; [7]): > 100 µM
- pKa (physchem): 9.28 ± 0.03
- pKa [CuL]+ [3]: 4.08
- logβ [CuLH−1] [3]: 9.59 ± 0.03
- logβ [CuL]+ [3]: 13.68 ± 0.03
- pCu5.0 [3]: 7.6
- pCu6.0 [3]: 9.1
- pCu7.4 [3]: 11.8
- kobs [4]: 0.22 ± 0.02 min⁻¹

- IC50 [1]: 12 µM
SMILES: Cc1c(C)c2c(c(C)c1O)CCC(C)(C(=O)O)O2 (centres unmarked) [Trolox, 6-hydroxy-2,5,7,8-tetramethylchroman-2-carboxylic acid, reference compound]
- TEAC (Trolox equivalent antioxidant capacity) [1]: 1
- % Scavenging Effect [1]: 100%

- IC50 [1]: > 50 µM
SMILES: C[C@]12CC[C@@H]3c4ccc(O)cc4CC[C@H]3[C@@H]1CC[C@@H]2O [estradiol]
- % Scavenging Effect [1]: 0.5%
